# Structures can show the parent of a compound that is named as a salt.
# How the values were obtained:
# S. epidermidis SK9 [1] = assay: Checkerboard titration, FICI; assay type: cell-based, Staphylococcus epidermidis
# Description: (§1) A fourth composition and solution included tetrasodium EDTA with ethanol or chlorhexidine HCl. This fourth composition and solution were created using checkerboard titration methods using micro broth dilution in 96-well microtiter plates. The concentrations of antimicrobials used were based on previously determined MIC values. Briefly, 200 μL of two-fold dilutions of tetrasodium EDTA and ethanol or chlorhexidine HCl were prepared in MH or MH II broth with standardized cell suspension. […] Microtiter plates were incubated at 37° C. for 24 h, and the results were analyzed. Each test was performed in duplicate and included a growth control without adding any antimicrobials.
# MRSA ON184 [2] = assay: Checkerboard titration, FICI; assay type: cell-based, Staphylococcus aureus
# Description: as §1
# E. coli SK2 [3] = assay: Checkerboard titration, FICI; assay type: cell-based, Escherichia coli
# Description: as §1
# C. albicans ON47 = assay: Checkerboard titration, FICI; assay type: cell-based, Candida albicans
# Description: as §1
# S. epidermidis SK9 [4] = assay: Checkerboard, FMCI; assay type: cell-based, Staphylococcus epidermidis; settings: EDTA + chlorhexidine HCl
# Description: (§2) An assay was made using a minimum inhibitory concentration (MIC) and minimum bactericidal concentration (MBC) and minimum fungicidal concentration (MFC) determination. The MIC was determined by the micro broth dilution method in 96-well plates. Serial two-fold dilutions of tetrasodium EDTA (from 2% to 0.015%), ethanol (from 50% to 0.1%) and chlorhexidine HCl (from 100 μg/mL to 0.025 μg/mL) were prepared in MH broth with a final volume of 90 μL per well. A 10 μL containing 1×10^5 bacterial cells or 2×10^3 fungal cells were added to each well. The inoculated plates were covered with a lid, sealed with Parafilm, and incubated for 24 h at 37° C. with slight rocking on a tilting platform shaker. After incubation, the optical density at 600 nm (OD 600) of the cultures in each well was measured using an xMark™ Microplate Absorbance Spectrophotometer (Bio-Rad). […] MBCs and MFCs were determined by transferring 100 μL from each well with no apparent growth onto appropriate agar plates, followed by incubation for 24 h at 37° C.
# A fourth composition and solution included tetrasodium EDTA with ethanol or chlorhexidine HCl. […] The concentrations of antimicrobials used were based on previously determined MIC values. […] Microtiter plates were incubated at 37° C. for 24 h, and the results were analyzed. […]
# [5] = system: Staphylococcus epidermidis SK9; assay: Checkerboard FBEC index, 48-h biofilm; assay type: cell-based; settings: S. epidermidis SK9 biofilm
# Description: (§4) In step (4), microtiter plates are incubated at 37° C. for 24 h. then (6), after incubation, the bacterial and fungal cells were dislodged from the pegs into the recovery medium described above.
# (§5) Three 10-μL aliquots, for a total of 30 μL from each well of recovery medium, were spotted on MH agar plates and incubated for 24 h at 37° C. […] The FBEC determination is a modification of the FICI.
# [6] = system: Staphylococcus aureus ON89; assay: Checkerboard FBEC index, 48-h biofilm; assay type: cell-based; settings: S. aureus ON89 biofilm
# Description: as §4, §5
# [7] = system: 48-h old biofilms of bacterial and fungal test organisms; assay: Rapid biofilm eradication, 2-h exposure; assay type: cell-based; settings: each agent alone at its MBEC
# Description: Determining rapid biofilm eradication by tetrasodium EDTA, ethanol, and chlorhexidine HCl alone and in combination was performed. After biofilm formation, control pegs (n=6) were removed and analyzed to determine the starting biofilm cell numbers via the drop dilution method. The 48-h old biofilms on the pegs were exposed to different concentrations of test antimicrobials, dissolved in an appropriate growth medium, for two h to evaluate their efficacy alone and in combination. […] Following treatment, pegs were washed twice with sterile PBS, and the biofilm cells were dislodged into recovery medium and enumerated as described above.
# The method for rapid biofilm eradication ability of test antimicrobials alone and in combination against 48-h-old biofilms within two h exposure time included (1) choosing different concentrations of test antimicrobials to assess their potency in eradicating preformed biofilms of study organisms within two h. Then (2) the quantitative recovery from biofilms following exposure to the antimicrobial solutions for bacterial strains (FIGS. 4A-4C) and fungal strains (FIG. 5) was evaluated.
# S. epidermidis SK9 [8] = assay: MIC, micro broth dilution; assay type: cell-based, Staphylococcus epidermidis; settings: agent alone
# Description: as §2
# MRSA ON184 [9] = assay: MIC, micro broth dilution; assay type: cell-based, Staphylococcus aureus; settings: agent alone
# Description: as §2
# E. coli SK2 [10] = assay: MIC, micro broth dilution; assay type: cell-based, Escherichia coli; settings: agent alone
# Description: as §2
# S. epidermidis SK9 [11] = assay: MBC/MFC determination; assay type: cell-based, Staphylococcus epidermidis; settings: agent alone
# Description: as §2
# MRSA ON184 [12] = assay: MBC/MFC determination; assay type: cell-based, Staphylococcus aureus; settings: agent alone
# Description: as §2
# E. coli SK2 [13] = assay: MBC/MFC determination; assay type: cell-based, Escherichia coli; settings: agent alone
# Description: as §2
# [14] = system: Pseudomonas aeruginosa SK1; assay: MBEC assay, 48-h biofilm; assay type: cell-based; settings: P. aeruginosa SK1 48-h biofilm; 24 h exposure
# Description: (§3) A biofilm cultivation cell composition was provided. This fifth composition was created using an MBEC Assay® biofilm inoculator, consisting of a polystyrene lid with 96 downward-protruding pegs and a corresponding base used to grow biofilms. A standardized inoculum was diluted in an appropriate biofilm growth medium to achieve a viable cell count of 1.5×10^6 CFU/mL of bacterial cells or 5×10^5 CFU/mL of fungal cells. Then, 150 μL of this inoculum was transferred into each appropriate well, and the peg lids were inserted into the microtiter plates. The plates were sealed with Parafilm and were incubated at optimum temperature for 48 h with slight rocking for bacteria and shaking at 200 rpm for fungal strains. After incubation, the peg lid was removed from the base and rinsed twice with sterile phosphate-buffered saline (PBS) for 2 min to remove loosely attached non-sessile cells. Before the antimicrobial challenge, the pegs in column 1 (n=8) were considered the biofilm growth control; these pegs were removed from the lids, placed into 200 μL of recovery medium, and analyzed for starting biofilm cell numbers as described below. The rinsed pegs were placed into new 96-well plates containing two-fold dilutions of antimicrobials such as tetrasodium EDTA (4%-0.0125%), ethanol (100%-0.2%), and chlorhexidine HCl (100 μg/mL-0.4 μg/mL) in 200 μL of suitable biofilm growth medium per well and incubated at optimum temperature for 24 h. After the antimicrobial challenge, the pegs were rinsed twice with sterile PBS for 2 min and placed into a new 96-well plate containing 200 μL of recovery medium. The recovery plates were sealed with Parafilm, and biofilm cells were dislodged from the pegs by sonication for 30 min with a Branson 3510 bath sonicator. The biofilm cells in the recovery medium were serially diluted, and a drop dilution assay was performed to enumerate the viable cells. MBEC values were determined as the minimum concentration of antimicrobials that yielded a viable cell count at or lower than the 125 CFU/mL detection limit.
# [15] = system: Staphylococcus epidermidis SK9; assay: MBEC assay, 48-h biofilm; assay type: cell-based; settings: S. epidermidis SK9 48-h biofilm; 24 h exposure
# Description: as §3
# MRSA ON184 [16] = assay: MBEC assay, 48-h biofilm; assay type: cell-based, Staphylococcus aureus; settings: MRSA ON184 48-h biofilm; 24 h exposure
# Description: A biofilm cultivation cell composition was provided. This fifth composition was created using an MBEC Assay® biofilm inoculator, consisting of a polystyrene lid with 96 downward-protruding pegs and a corresponding base used to grow biofilms. A standardized inoculum was diluted in an appropriate biofilm growth medium to achieve a viable cell count of 1.5×10^6 CFU/mL of bacterial cells or 5×10^5 CFU/mL of fungal cells. Then, 150 μL of this inoculum was transferred into each appropriate well, and the peg lids were inserted into the microtiter plates. The plates were sealed with Parafilm and were incubated at optimum temperature for 48 h with slight rocking for bacteria and shaking at 200 rpm for fungal strains. After incubation, the peg lid was removed from the base and rinsed twice with sterile phosphate-buffered saline (PBS) for 2 min to remove loosely attached non-sessile cells. Before the antimicrobial challenge, the pegs in column 1 (n=8) were considered the biofilm growth control; these pegs were removed from the lids, placed into 200 μL of recovery medium, and analyzed for starting biofilm cell numbers as described below. […] MBEC values were determined as the minimum concentration of antimicrobials that yielded a viable cell count at or lower than the 125 CFU/mL detection limit.
# [17] = EDTA + chlorhexidine HCl checkerboard
smiles,measurement,setting,value
"[H]/N=C(\N/C(=N/[H])NCCCCCCNC(=N)NC(=N)Nc1ccc(Cl)cc1)Nc1ccc(Cl)cc1 [Chlorhexidine HCl, chlorhexidine HCl, reference compound]",Inhibitory concentration in combination,S. epidermidis SK9 [1]; [17],0.025 µg/mL
same,Inhibitory concentration in combination,MRSA ON184 [2]; [17],0.2 µg/mL
same,Inhibitory concentration in combination,E. coli SK2 [3]; [17],0.1 µg/mL
same,Inhibitory concentration in combination,C. albicans ON47; [17],0.8 µg/mL
same,Microbicidal concentration in combination,S. epidermidis SK9 [4],0.4 µg/mL
same,Biofilm eradication concentration in combination (FBEC),[5]; EDTA + chlorhexidine HCl,3.125 µg/mL
same,Biofilm eradication concentration in combination (FBEC),[6]; EDTA + chlorhexidine HCl,3.125 µg/mL
same,Eradication of preformed biofilms after 2 h of exposure,[7],failed to eradicate
"O=C([O-])CN(CCN(CC(=O)[O-])CC(=O)[O-])CC(=O)[O-].[Na+].[Na+].[Na+].[Na+] [EDTA, tetrasodium EDTA]",MIC,S. epidermidis SK9 [8],0.063 % w/v
same,MIC,MRSA ON184 [9],0.063 % w/v
same,MIC,E. coli SK2 [10],0.5 % w/v
same,Inhibitory concentration in combination,S. epidermidis SK9 [1]; [17],0.015 % w/v
same,Inhibitory concentration in combination,S. epidermidis SK9 [1]; EDTA + ethanol checkerboard,0.015 % w/v
same,Inhibitory concentration in combination,MRSA ON184 [2]; [17],0.008 % w/v
same,Inhibitory concentration in combination,MRSA ON184 [2]; EDTA + ethanol checkerboard,0.015 % w/v
same,Inhibitory concentration in combination,E. coli SK2 [3]; [17],0.008 % w/v
same,Inhibitory concentration in combination,E. coli SK2 [3]; EDTA + ethanol checkerboard,0.015 % w/v
same,Inhibitory concentration in combination,C. albicans ON47; [17],0.125 % w/v
same,Inhibitory concentration in combination,C. albicans ON47; EDTA + ethanol checkerboard,0.25 % w/v
same,MBC/MFC,S. epidermidis SK9 [11],0.5 % w/v
same,MBC/MFC,MRSA ON184 [12],2 % w/v
same,MBC/MFC,E. coli SK2 [13],0.5 % w/v
same,Microbicidal concentration in combination,S. epidermidis SK9 [4],0.008 % w/v
same,MBEC,[14],4 % w/v
same,MBEC,[15],2 % w/v
same,MBEC,MRSA ON184 [16],2 % w/v
same,Biofilm eradication concentration in combination (FBEC),[5]; EDTA + ethanol,0.031 % w/v
same,Biofilm eradication concentration in combination (FBEC),[6]; EDTA + ethanol,0.063 % w/v
same,Eradication of preformed biofilms after 2 h of exposure,[7],failed to eradicate

# — patent publication US20230263758A1, “COMPOSITIONS OF EDTA HAVING ACTIVITY AGAINST PLANKTONIC AND BIOFILM CELLS OF CLINICALLY RELEVANT PATHOGENS” (SterileCare Inc., priority 2022, published 2023)
